Source: publication PMC10987480, “Biological and mutational analyses of CXCR4–antagonist interactions and design of new antagonistic analogs” (Bioscience Reports, 2023)
Like-named read-outs stand apart in the source and are kept apart here. One block for each molecule: values may come before it. Positions of bridges follow the written chain, without caps; N, C: chain ends. Non-standard residues stand in square brackets, D forms with d. Residues, ends and D or L forms follow the SMILES beside them. 2Nal = N[C@@H](Cc1ccc2ccccc2c1)C(=O)O; d2Nal = N[C@H](Cc1ccc2ccccc2c1)C(=O)O; Cit = NC(=O)NCCC[C@H](N)C(=O)O

How the values were obtained:
CXCR4 [1] = target: T1, CXCR4 (Homo sapiens, UniProt P61073); experiment: Competitive CXCR4 binding assay (12G5 antibody probe), wild-type CXCR4 transfected CHO cells; set-up: expressed in transfected cells
Method: The CXCR4-specific antibody, 12G5 was used as a probe for the competitive CXCR4 binding assay to evaluate the binding activity of CXCR4 antagonists.
Figure 1 Competitive CXCR4 binding curves of eleven CXCR4 antagonists The CXCR4 transfected CHO cells were incubated with different concentrations of antagonists and 250 ng/ml 12G5 antibody. The CXCR4-binding 12G5 antibody was recognized by FITC-conjugated anti-IgG second antibody. The cells treated with only second antibody were used as a negative control (0%) while cells treated with both 12G5 antibody and second antibody were used as a positive control (100%). Cells treated with CXCR4 antagonists were calculated in percentage relative to the positive and negative controls. The data were averages of at least three independent experiments and shown as mean ± standard error of the mean (S.E.M.).
(§1) The procedure for the CXCR4 competitive binding experiments was published previously. Briefly, CXCR4 antibody 12G5 (250 ng/ml) was incubated with 5 × 10^5 cells and varying concentrations of unlabeled compounds in a final volume of 100 μl of assay buffer (PBS with 0.5% BSA and 0.05% NaN3) in 96-well plates for 40 min on ice, after being washed with assay buffer once. The cells were incubated with FITC-conjugated second antibody IgG for 30 min on ice, then washed with assay buffer three times. The fluorescence intensity was measured for excitation at 485 nm and emission at 535 nm using multimode plate reader (PerkinElmer). The IC50 values were calculated using graphpad Prism 7. Experiments were performed at least three times.

X4-tropic HIV = settings: read-out: IC50, block of X4-tropic HIV infection via CXCR4; cited from earlier work
Description: (§2) To understand the receptor–ligand recognition mechanism involving CXCR4 and its antagonists, here in this study we conducted a series of comparative analyses of the biological activities and CXCR4 binding sites of eleven known CXCR4 antagonists, including the three mentioned above, using cell-based bioassays, CXCR4 site-directed mutagenesis and computer-aided molecular modeling. These antagonists studied here were chosen from different representative structural types including both D-peptides (i.e., HC4319, DV1, DV1 dimer, and DV3) and a representative counterpart L-peptide (i.e., V1) derived ...

CXCR4 [2] = settings: read-out: Competitive binding IC50; cited from earlier work
Description: as §2

CXCR4 [3] = target: T1, CXCR4; experiment: SDF-1α-induced calcium mobilization assay in SupT1 cells (Fluo-4); assay type: cell-based; set-up: host or cells: SupT1 cells; settings: for inhibition at 10 µM: SUP-T1, at 10 μM, 50 nM SDF-1α, read-out: Inhibition of the calcium signal
Method: (§3) Figure 2 The inhibitory effect of the antagonists on SDF-1α-induced cell chemotaxis and calcium mobilization in SupT1 cells The antagonists and concentrations used were labeled in each lane. (A) The inhibition of cell migration by the noted antagonists. SupT1 cells pre-treated with or without CXCR4 antagonists were seeded in the upper well and cell migrated by 2 nM SDF-1α. Migrated cells without SDF-1α were used as a negative (0%) and migrated cell induced by SDF-1α as a positive control (100%). […] SupT1 cells were treated with or without CXCR4 antagonists and activated by 50 nM SDF-1α. To directly compare the inhibitory effect of the antagonists on calcium mobilization, the vehicle background and baseline were removed using GraphPad and Origin. The data were averages of at least three independent experiments.
SupT1 cells were collected and washed using HHBS buffer (Hanks’ Balanced Salt solution supplemented with 20 mM HEPES) and incubated with 1 mM probenecid (Energy Chemical, China) and 4 μM Fluo-4 (AAT bioquest, U.S.A.) for 37°C for 30 min with vortex every 5 min. After being washed with HHBS, cells were suspended in PBS at 2 × 10^6/ml and seeded 200 μl cells and various concentrations of compounds per well in 96-well plate. Following 50 nM SDF-1α was added to each well, the fluorescence intensity was measured (Ex/Em = 496/516 nm) using EnSpire® multimode plate reader (PerkinElmer, U.S.A.).

CXCR4 [4] = target: T1, CXCR4; experiment: SDF-1α-induced cell migration assay in SupT1 cells (transwell); assay type: cell-based; set-up: host or cells: SupT1 cells; settings: 2 nM SDF-1α, 30 min pre-incubation, 3 h migration; for inhibition at 40 µM: SUP-T1, at 40 μM
Method: as §3
SupT1 cells (2 × 10^6 cells per well in 75 μl) were collected and washed using assay buffer (RPMI 1640 supplemented with 0.5% BSA) and incubated with various concentrations of tested compounds for 30 min in the upper well of the transwell-96 well plates with 5.0 µm pore polycarbonate membrane insert (Corning, U.S.A.). Then, 200 μl assay buffer containing 2 nM SDF-1α was added to the lower well and cells were allowed to migrate for 3 h. Migrated cells were measured using celltiter-96 reagent.

CXCR4 [5] = target: T1, CXCR4; experiment: CXCR4-mediated internalization assay, CHO cells expressing CXCR4-EGFP (confocal); assay type: cell-based; set-up: expressed in transfected cells; settings: at 100 and 10 μM; SDF-1α-induced
Method: Figure 3 The inhibitory effect of the antagonists on CXCR4 internalization CHO cells expressed CXCR4-EGFP conjugates were seeded in 96-well plate with glass bottom. Untreated cells were used as a control. Cells were pre-treated with or without CXCR4 antagonists and internalized with 50 nM SDF-1α (scale bar: 5 μm). The concentrations of the antagonists used were the same as those for the calcium mobilization assay shown above. The data shown were representative of three independent experiments.
CXCR4 and EGFP were amplified using a primer shown in Supplementary Table S1. The pcDNA3 vector was digested by restriction-enzyme EcoR1 and Apa1. CXCR4 was digested by restriction-enzyme EcoR1 and Xba1. EGFP was digested by restriction-enzyme Xba1 and Apa1. CXCR4–EGFP conjugate was constructed by ligation of three DNA fragments using T4 ligase. The vector containing CXCR4 ligated EGFP at the C-terminus was transfected and expressed in CHO cells in 100 μl DMEM medium supplemented with 2% FBS at 1 × 10^5/ml which was seeded in 96-well black plate glass bottom and incubated at 37°C overnight. Following incubation with tested compounds for 10 min, 50 nM of SDF-1α was added to each well and the internalized CXCR4 was observed using a confocal microscopy (Zeiss LSM880).

CXCR4 mutants = experiment: Mutational analysis of HM70116 binding to CXCR4 mutants compared with DV3; settings: mutants F87A, W94A, Y116A, T117A, D171A, W195A, Y255A, D262N, H281A; three independent experiments with duplicate values
Description: Figure 10 The mutational analysis and molecular modeling of HM70116 interaction with CXCR4 (A) Mutational analysis of HM70116 interaction with CXCR4 binding pocket. The data was averaged from three independent experiments with duplicate values. The data were shown as mean ± standard error of the mean (S.E.M.). (B) MD simulation of HM70116-CXCR4 complex. (C) Binding mode of the N-terminus of vMIP-II in the CXCR4-binding pocket.
as §1

[6] = CXCR4 transfected CHO cells, 250 ng/ml 12G5, 40 min on ice, FITC second antibody, mean ± S.E.M. of at least three independent experiments, SEM, read-out: IC50 (nM), inhibition of 12G5 binding to CXCR4

T1 sequence (P61073 whole entry): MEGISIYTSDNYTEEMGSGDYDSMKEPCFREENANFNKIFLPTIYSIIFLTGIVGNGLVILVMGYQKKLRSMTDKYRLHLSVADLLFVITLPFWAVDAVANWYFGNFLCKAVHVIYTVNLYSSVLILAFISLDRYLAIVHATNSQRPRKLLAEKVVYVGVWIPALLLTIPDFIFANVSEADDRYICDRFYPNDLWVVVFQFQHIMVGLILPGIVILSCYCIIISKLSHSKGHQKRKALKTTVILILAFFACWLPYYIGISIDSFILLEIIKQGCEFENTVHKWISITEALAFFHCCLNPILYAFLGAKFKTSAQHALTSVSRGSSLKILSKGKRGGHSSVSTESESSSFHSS

SMILES: CC(C)C[C@@H](N)C(=O)NCC(=O)N[C@H](C)C(=O)N[C@H](CO)C(=O)N[C@H](Cc1c[nH]c2ccccc12)C(=O)N[C@H](Cc1c[nH]cn1)C(=O)N[C@H](CCCNC(=N)N)C(=O)N1CCC[C@@H]1C(=O)N[C@H](CC(=O)O)C(=O)N[C@H](CCCCN)C(=O)N[C@H](CCCNC(=N)N)C(=O)O [HM60323] (H-[dL]G[dA][dS][dW][dH][dR][dP][dD][dK][dR]-OH)
IC50 (CXCR4 [1]; SEM): 707 ± 143 nM

SMILES: CC(C)C[C@@H](NC(=O)[C@@H](CCCNC(=N)N)NC(=O)[C@H](N)CCCCN)C(=O)NCC(=O)N[C@H](C)C(=O)N[C@H](CO)C(=O)N[C@H](Cc1c[nH]c2ccccc12)C(=O)N[C@H](Cc1c[nH]cn1)C(=O)N[C@H](CCCNC(=N)N)C(=O)N1CCC[C@@H]1C(=O)N[C@H](CC(=O)O)C(=O)N[C@H](CCCCN)C(=O)O [HM60303] (H-[dK][dR][dL]G[dA][dS][dW][dH][dR][dP][dD][dK]-OH; N-terminus and C-terminus assumed)
IC50 (CXCR4 [1]): > 50000 nM

SMILES: CC1(C)CN2C(CSC(=NC3CCCCC3)NC3CCCCC3)=CSC2=N1 [IT1t]
IC50 (X4-tropic HIV): 7 nM

SMILES: CC(C)C[C@@H](N)C(=O)NCC(=O)N[C@H](C)C(=O)N[C@H](CO)C(=O)N[C@H](Cc1c[nH]c2ccccc12)C(=O)N[C@H](Cc1c[nH]cn1)C(=O)N[C@H](CCCNC(=N)N)C(=O)N1CCC[C@@H]1C(=O)N[C@H](CC(=O)O)C(=O)N[C@H](CCCCN)C(=O)N[C@H](CS)C(=O)N[C@H](CS)C(=O)N[C@H](CC(C)C)C(=O)NCC(=O)N[C@H](Cc1ccc(O)cc1)C(=O)N[C@H](CCC(N)=O)C(=O)N[C@H](CCCCN)C(=O)N[C@H](CCCNC(=N)N)C(=O)N1CCC[C@@H]1C(=O)N[C@H](CC(C)C)C(=O)N1CCC[C@@H]1C(N)=O [DV1] (H-[dL]G[dA][dS][dW][dH][dR][dP][dD][dK][dC][dC][dL]G[dY][dQ][dK][dR][dP][dL][dP]-NH2)
inhibition at 10 µM (CXCR4 [3]): 86%
inhibition at 40 µM (CXCR4 [4]): 78%

SMILES: CC(C)C[C@@H](N)C(=O)NCC(=O)N[C@H](C)C(=O)N[C@H](CO)C(=O)N[C@H](Cc1c[nH]c2ccccc12)C(=O)N[C@H](Cc1c[nH]cn1)C(=O)N[C@H](CCCNC(=N)N)C(=O)N1CCC[C@@H]1C(=O)N[C@H](Cc1ccc2ccccc2c1)C(=O)N[C@H](CCCNC(=N)N)C(=O)N[C@H](CCCNC(=N)N)C(=O)O [HM70116] (H-[dL]G[dA][dS][dW][dH][dR][dP][d2Nal][dR][dR]-OH; N-terminus and C-terminus assumed)
Inhibition of intracellular calcium mobilization (in words) (CXCR4 [3]; 1 μM pretreatment, SDF-1α-induced): potently inhibited
Inhibition of CXCR4 internalization (in words) (CXCR4 [5]): effectively prevented CXCR4 internalization
Reduction in binding to CXCR4 mutants relative to DV3 (in words) (CXCR4 mutants): greater than DV3

SMILES: CC(C)C[C@@H](N)C(=O)NCC(=O)N[C@H](C)C(=O)N[C@H](CO)C(=O)N[C@H](Cc1c[nH]c2ccccc12)C(=O)N[C@H](Cc1c[nH]cn1)C(=O)N[C@H](CCCNC(=N)N)C(=O)N1CCC[C@@H]1C(=O)N[C@H](CC(=O)O)C(=O)N[C@H](CCCCN)C(=O)N[C@H](CCCNC(=N)N)C(=O)N[C@H](CCCNC(=N)N)C(=O)O [HM12] (H-[dL]G[dA][dS][dW][dH][dR][dP][dD][dK][dR][dR]-OH)
IC50 (CXCR4 [1]; SEM): 544 ± 75 nM

SMILES: CC(C)C[C@@H](N)C(=O)NCC(=O)N[C@H](C)C(=O)N[C@H](CO)C(=O)N[C@H](Cc1c[nH]c2ccccc12)C(=O)N[C@H](Cc1c[nH]cn1)C(=O)N[C@H](CCCNC(=N)N)C(=O)N1CCC[C@@H]1C(=O)N[C@H](CC(=O)O)C(=O)N[C@H](CCCCN)C(=O)O [DV3] (H-[dL]G[dA][dS][dW][dH][dR][dP][dD][dK]-OH)
inhibition at 10 µM (CXCR4 [3]): ~55%
inhibition at 40 µM (CXCR4 [4]): 13%

SMILES: CC(C)C[C@H](NC(=O)[C@H](CS)NC(=O)[C@H](CS)NC(=O)[C@H](CCCCN)NC(=O)[C@H](CC(=O)O)NC(=O)[C@@H]1CCCN1C(=O)[C@H](CCCNC(=N)N)NC(=O)[C@H](Cc1c[nH]cn1)NC(=O)[C@H](Cc1c[nH]c2ccccc12)NC(=O)[C@H](CO)NC(=O)[C@H](C)NC(=O)CNC(=O)[C@@H](N)CC(C)C)C(=O)NCC(=O)N[C@@H](Cc1ccc(O)cc1)C(=O)N[C@@H](CCC(N)=O)C(=O)N[C@@H](CCCCN)C(=O)N[C@@H](CCCNC(=N)N)C(=O)N1CCC[C@H]1C(=O)N[C@@H](CC(C)C)C(=O)N1CCC[C@H]1C(=O)O [V1] (H-LGASWHRPDKCCLGYQKRPLP-OH)
inhibition at 40 µM (CXCR4 [4]): 68%
IC50 (CXCR4 [1]; [6]): 2630 ± 891 nM

inhibition at 0.02 µM (CXCR4 [4]; SUP-T1, at 20 nM): 65%
IC50 (CXCR4 [1]; [6]): 7.8 ± 2.2 nM
SMILES: N=C(N)NCCC[C@H](NC(=O)[C@@H]1CSSC[C@H](NC(=O)[C@H](Cc2ccc3ccccc3c2)NC(=O)[C@H](CCCNC(=N)N)NC(=O)[C@@H](N)CCCNC(=N)N)C(=O)N[C@@H](Cc2ccc(O)cc2)C(=O)N[C@@H](CCC(N)=O)C(=O)N[C@@H](CCCCN)C(=O)N2CCC[C@@H]2C(=O)N2CCC[C@H]2C(=O)N[C@@H](Cc2ccc(O)cc2)C(=O)N[C@@H](CCCNC(=N)N)C(=O)N[C@@H](CCCNC(N)=O)C(=O)N1)C(=O)NCC(=O)N1CCC[C@@H]1C(=O)O [CVX15] (H-RR[2Nal]CYQK[dP]PYR[Cit]CRG[dP]-OH; disulfide 4-13)
